Source: patent US8236987B2, “Selective estrogen receptor modulator compositions and methods for treatment of disease” (The Regents of the University of California, priority 2007, dated 2012)
“Also recorded” adds a separate entry of the source. Where two headings read alike, the source gives them in different places.

Legend:
full length (ER)α = molecular target: T1, full length (ER)α (Homo sapiens, UniProt P03372); test: Estrogen receptor binding assay (spin column, [3H]estradiol competition), (ER)α
T1 construct: purchased PanVera Corp, Madison, Wis., USA
T1 sequence (P03372 1-595): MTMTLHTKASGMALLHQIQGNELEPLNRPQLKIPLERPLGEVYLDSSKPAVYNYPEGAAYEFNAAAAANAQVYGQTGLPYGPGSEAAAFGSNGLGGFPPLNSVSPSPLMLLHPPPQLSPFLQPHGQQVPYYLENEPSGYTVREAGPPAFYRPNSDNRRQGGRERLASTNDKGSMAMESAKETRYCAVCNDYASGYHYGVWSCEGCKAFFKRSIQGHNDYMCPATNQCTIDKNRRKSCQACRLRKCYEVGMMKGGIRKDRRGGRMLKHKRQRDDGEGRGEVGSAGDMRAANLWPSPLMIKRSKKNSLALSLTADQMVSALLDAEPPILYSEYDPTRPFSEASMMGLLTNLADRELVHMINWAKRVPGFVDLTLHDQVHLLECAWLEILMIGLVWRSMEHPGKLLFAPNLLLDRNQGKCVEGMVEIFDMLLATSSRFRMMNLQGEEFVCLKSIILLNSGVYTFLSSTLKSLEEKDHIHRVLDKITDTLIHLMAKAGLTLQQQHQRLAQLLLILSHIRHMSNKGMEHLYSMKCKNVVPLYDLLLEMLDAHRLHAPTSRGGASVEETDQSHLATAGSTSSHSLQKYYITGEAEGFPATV

full length (ER)β = molecular target: T2, full length (ER)β (Homo sapiens, UniProt Q92731); test: Estrogen receptor binding assay (spin column, [3H]estradiol competition), (ER)β
T2 construct: to full length (ER)α or (ER)β*; purchased PanVera Corp, Madison, Wis., USA
T2 sequence (Q92731 whole entry): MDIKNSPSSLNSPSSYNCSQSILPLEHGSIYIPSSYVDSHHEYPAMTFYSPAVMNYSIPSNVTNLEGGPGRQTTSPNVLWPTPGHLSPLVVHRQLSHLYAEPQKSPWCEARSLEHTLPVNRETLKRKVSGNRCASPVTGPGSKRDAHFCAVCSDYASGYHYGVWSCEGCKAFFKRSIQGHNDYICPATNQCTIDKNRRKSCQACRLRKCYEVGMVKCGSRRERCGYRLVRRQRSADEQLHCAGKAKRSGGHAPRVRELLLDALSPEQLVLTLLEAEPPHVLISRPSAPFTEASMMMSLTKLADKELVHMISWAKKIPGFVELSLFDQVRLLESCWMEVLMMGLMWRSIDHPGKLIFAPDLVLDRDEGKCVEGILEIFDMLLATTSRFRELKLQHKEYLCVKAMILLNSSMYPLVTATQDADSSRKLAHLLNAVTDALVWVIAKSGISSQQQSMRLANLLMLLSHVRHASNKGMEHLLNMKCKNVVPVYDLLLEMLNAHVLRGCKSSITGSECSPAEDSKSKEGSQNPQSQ

[1] = tested on: GABAB receptor-mediated outward current in hypothalamic arcuate (dopamine, POMC) neurons; membrane associated estrogen receptor; test: Whole-cell patch voltage clamp: baclofen-induced GABAB response (GIRK outward current) in hypothalamic arcuate neurons; format: cell-based, guinea pig
[2] = tested on: uteri of ovariectomized C57BL/6 mice; test: Uterine size and weight in ovariectomized mice (uterotropic action); format: in vivo; conditions: 1 μg daily for 2 days, compared with oil vehicle
Procedure: Wild-type C57BL/6 mice in these studies were obtained from Jackson laboratories. All animals were maintained under controlled temperature (25° C.) and photoperiod conditions (14-h light, 10-h dark; lights on between 0700 and 2100) with food and water ad libitum. Adult mice were ovariectomized under isoflurane anesthesia, and allowed to recover for 1 week. […] The uteri were collected, weighed and fixed in 4% paraformaldehyde for later histological analysis (data not shown).

[3] = 10 μM (PD98059 in the pipette), together with 17β-estradiol

Molecule: 4-hydroxytamoxifen
- Relative binding affinity (ER)α (full length (ER)α): 36%
- Relative binding affinity (ER)β (full length (ER)β): 43%
- block of the baclofen response [1]: 25%
- effect on the baclofen response (in words) [1]: behave like 17β-estradiol

Molecule: 17β-estradiol 17-hemisuccinate: BSA [17β-estradiol-BSA]
- effect on the baclofen response (in words) ([1]; 100 nM, substance alone): fully efficacious in inhibiting the baclofen response; also recorded: inhibited the baclofen response; also recorded: identical response to free 17β-estradiol

Molecule: C[C@]12CC[C@@H]3c4ccc(O)cc4CC[C@H]3[C@@H]1CC[C@H]2O [17α-estradiol]
- effect on the baclofen response (in words) ([1]; 1 μM, substance alone): no effect; also recorded: inactive; also recorded: no effects were observed

Molecule: C[C@]12CC[C@@H]3c4ccc(O)cc4CC[C@H]3[C@@H]1CC[C@@H]2O [17β-estradiol]
- R2/R1 (second over first baclofen response) [1]: 58.6±3.4%
- decrease in the response to a second application of baclofen (GABAB outward current) [1]: 41%
- effect on the baclofen response (in words) ([1]; 100 nM, substance alone): no effect

Molecule: O=C(O)CN(CC(=O)O)c1ccccc1OCCOc1ccccc1N(CC(=O)O)CC(=O)O [BAPTA, 1,2-bis-(o-aminophenoxyethane)-N,N,N′,N′-tetraacetic acid]
- effect on the 17β-estradiol attenuation of the baclofen response (in words) ([1]; 10 mM in the internal solution replacing EGTA, with 17β-estradiol): still observed

Molecule: CN(C)CCCn1cc(C2=C(c3c[nH]c4ccccc34)C(=O)NC2=O)c2ccccc21.Cl [BIS, bisindolylmaleimide I hydrochloride]
- effect on the 17β-estradiol attenuation of the baclofen response (in words) [1]: nearly eliminated the effects of 17β-estradiol

Molecule: Cl.Cl.O=S(=O)(NCCNC/C=C/c1ccc(Br)cc1)c1cccc2cnccc12 [Compound H89]
- effect on the 17β-estradiol attenuation of the baclofen response (in words) [1, 3]: blocked

Molecule: N#CC(=C(/N)Sc1ccccc1N)/C(C#N)=C(/N)Sc1ccccc1N [Compound U0126]
- effect on the 17β-estradiol attenuation of the baclofen response (in words) ([1]; 5 μM, with 17β-estradiol): did not affect 17β-estradiol inhibition of baclofen responses

Molecule: COc1ccc2c(c1)CC[C@@H]1[C@@H]2CC[C@]2(C)[C@@H](NCCCCCCN3C(=O)C=CC3=O)CC[C@@H]12 [Compound U73122]
- effect on the 17β-estradiol attenuation of the baclofen response (in words) [1, 3]: blocked

Molecule: COc1ccc2c(c1)CC[C@@H]1[C@@H]2CC[C@]2(C)[C@@H](NCCCCCCN3C(=O)CCC3=O)CC[C@@H]12 [Compound U73343]
- effect on the 17β-estradiol attenuation of the baclofen response (in words) [1, 3]: no effect

Molecule: CC/C(=C(\c1ccccc1)c1ccc(/C=C/C(=O)O)cc1)c1ccccc1 [GW-5638]
- effect on the baclofen response (in words) ([1]; 1 μM, substance alone): significantly more efficacious than 17β-estradiol; also recorded: behave like 17β-estradiol

Molecule: Cn1c2ccccc2c2c3c(c4c5ccccc5n(CCC#N)c4c21)CNC3=O [Gö6976]
- effect on the 17β-estradiol attenuation of the baclofen response (in words) ([1]; concentration not given, with 17β-estradiol): without effect

Molecule: C[C@]12CC[C@@H]3c4ccc(O)cc4C[C@@H](CCCCCCCCC[S+]([O-])CCCC(F)(F)C(F)(F)F)[C@H]3[C@@H]1CC[C@@H]2O (some centres unmarked) [ICI 182,780]
- effect on the baclofen response (in words) ([1]; 1 μM, substance alone): no effect
- effect on the 17β-estradiol attenuation of the baclofen response (in words) ([1]; 1 μM, together with 17β-estradiol (100 nM)): blocked
- effect on the 17β-estradiol attenuation of the baclofen response (in words) ([1]; 1 μM, together with 17β-estradiol (100 nM), listed as ICI-182,780): antagonizes the 17β-estradiol response

Molecule: COc1cccc(-c2cc(=O)c3ccccc3o2)c1N [PD98059]
- effect on the 17β-estradiol attenuation of the baclofen response (in words) [1, 3]: did not affect 17β-estradiol inhibition of baclofen responses
- R2/R1 (second over first baclofen response), substance + 17β-estradiol ([1]; substance 10 μM in the pipette together with 17β-estradiol): 66.1±11.8%

Molecule: O=C(c1ccc(OCCN2CCCCC2)cc1)c1c(-c2ccc(O)cc2)sc2cc(O)ccc12 [Raloxifene, raloxifene]
- effect on the baclofen response (in words) [1]: completely mimicked the actions of 17β-estradiol; also recorded: behave like 17β-estradiol

Molecule: Nc1ncnc2c1ncn2[C@@H]1O[C@@H]2COP(O)(=S)O[C@H]2[C@H]1O (some centres unmarked) [Rp-cAMP]
- effect on the 17β-estradiol attenuation of the baclofen response (in words) ([1]; 200 μM, intracellular dialysis, with 17β-estradiol): abolished

Molecule: CC/C(=C(\c1ccccc1)c1ccc(OCCN(C)C)cc1)c1ccccc1 [Tamoxifen, tamoxifen]
- effect on the 17β-estradiol attenuation of the baclofen response (in words) [1]: did not attenuate the effects of 17β-estradiol
- effect on the baclofen response (in words) [1]: inactive

Molecule: C[C@]12CC[C@@H]3c4ccc(OC(=O)c5ccccc5)cc4CC[C@H]3[C@@H]1CC[C@@H]2O [estradiol benzoate]
- uterine size [2]: noticeable increase in uterine size

Molecule: CC(=O)c1c(O)c(C)c(O)c(Cc2c(O)c3c(c(C(=O)/C=C/c4ccccc4)c2O)OC(C)(C)C=C3)c1O [rottlerin]
- effect on the 17β-estradiol attenuation of the baclofen response (in words) [1]: completely blocked

Molecule: Ac-LGLNLKEYNLV-OH [Gq peptide]
- effect on the 17β-estradiol attenuation of the baclofen response (in words) [1]: significantly blocked
